Results: patent publication US11591288B2, “Compositions and methods for treating atherosclerotic cardiovascular disease” (GAVISH-GALILEE BIO APPLICATIONS LTD., priority 2017, dated 2023)

Key:
J774A.1 macrophages [1] = assay: APOA1-mediated cholesterol efflux from macrophage cells; assay type: cell-based, murine
Protocol: J774A.1 cells were incubated for 4 h with RPMI buffer (media), APOA1 (10 μg) preincubated with DMSO or with lyso-DGTS (at final concentration of 10, 20, 50, and 100 μg/ml) for 2 h. Fluorescence was measured in media and cells at excitation/emission 482/515 nm. The cholesterol efflux was expressed as % efflux elicited by cells. Each experiment was repeated separately at least three times. *p<0.05, ***p<0.0001 relative to the control (APOA1 incubated with DMSO; n=3). Statistical analysis by one-way ANOVA and Graphpad prism 5 software.
APOA1 was incubated with lyso-DGTS at different concentrations (0, 10, 20, 50, and 100 μg/ml), and its ability to remove cholesterol from J774A.1 macrophages was measured by fluorometric assay (cell-based Cholesterol Efflux Fluorometric Assay Kit) and expressed as % of cholesterol efflux.

HDL = HDL surface polarity, Laurdan General Polarization (Gp) assay; design: species or system human; conditions: HDL 100 μg/ml, lyso-DGTS 0-100 μg/ml
Protocol: The fluorescence emission spectra of Laurdan were obtained using at excitation/emission 340/400-520 nm. The value of Gp of Laurdan was calculated using the formula: Gp=(I435−I490)/(I435+I490). Each experiment was repeated separately at least three times. *p<0.05, ***p<0.0001 related to the control (HDL without lyso-DGTS). Statistics were analyzed using T-test Graphpad prism 5 software.
HDL particles are plurimolecular, quasi-spherical or discoid, pseudomicellar complexes predominantly composed of polar lipids solubilized by apolipoproteins. In order to determine a possible interaction between lyso-DGTS and the HDL lipid core, the Laurdan General Polarization (Gp) assay was used. […] This interaction may cause a change in its physical state and lipid core polarity and thus affect its functionality.

J774A.1 macrophages [2] = assay: Ox-LDL-induced foam cell formation, Oil Red O staining; assay type: cell-based, murine
Protocol: J774A.1 macrophage cells were grown in RPMI 1640 media containing 10% FBS in cell culture flask till ˜90% confluence (37° C. incubator containing 5% CO2). The cells were incubated at 37° C. overnight under sterile conditions, approximately 1×10^5 J774.1 cells/well in a 96-well plate. Macrophage cells were incubated for an additional 24 h with lyso-DGTS (50 and 100 μg/ml), rePON1 (50 μg/ml), or rePON1 preincubated with different concentrations of lyso-DGTS (10, 20, 50 and 100 μg/ml). The cells were washed and ox-LDL (25 μg/ml in a RPMI medium) was added for another 24 h to yield foam cells. The cells were washed 3 times with PBS, following fixation with 4% formaldehyde for 10 min, the cells were stained with Oil Red O (0.35 mg/100 ml in 60% isopropanol; Sigma-Aldrich) for 15 min at 37° C. to evaluate the characteristic lipid accumulation in macrophage-derived foam cells. Foam cell formation was observed under microscope.
The density of lipid content was evaluated by alcohol extraction after staining. The absorbance at 514 nm was measured using microplate reader (Infinite M200 PRO fluorescence spectrophotometer (Tecan)).
Macrophages uptake of ox-LDL, forming foam cell, is the hallmark of atherogenesis. The ability of lyso-DGTS or rePON1 incubated with lyso-DGTS to attenuate foam cell formation was examined. […]

J774A.1 macrophages [3] = assay: rePON1 influx to J774A.1 macrophages (FITC-rePON1, FACS); assay type: cell-based, murine; conditions: 16 h, 61.62 for rePON1-FITC alone
Protocol: rePON1 (2 mg/ml) was reacted with fluorescein isothiocyanate (FITC) (200 μg/ml) for 1 h at 37° C. in the dark in borate buffer (PH=8.6). Glycine 10 mM was added and the solution was dialyzed using PBS buffer to remove FITC excess. RePON1-FITC conjugate (50 μg/ml) was incubated with lyso-DGTS at different concentration (10, 20, 50 and 100 μg/ml) into RPMI for 2 h. The solution was added to J774A.1 macrophages and incubated for 16 h. Cells were washed three times with sterile PBS buffer (0.1% sodium azid, 0.2% bovine serum albumin (BSA)), harvested in PBS (buffer) and analyzed by fluorescence-activated cell sorting (FACS) (Facscalibur 4ca). Results are presented as mean fluorescence intensity (MFI).
RePON1 was labeled with FITC and incubated with lyso-DGTS at different concentrations (10, 20, 50, and 100 μg/ml) for 2 h. Each solution was added to J774A.1 macrophages and incubated at 37° C. for 16 h, and then analyzed by fluorescence-activated cell sorting (FACS). […] The MFI increased from 61.62 for rePON1-FITS alone to 131.02, 368.61, 386.46, and 517.45 for rePON1 incubated with lyso-DGTS at 10, 20, 50, and 100 μg/ml, respectively (FIG. 6B).

## CC/C=C\C/C=C\C/C=C\C/C=C\C/C=C\CCCC(=O)OCC(O)COCCC(C(=O)[O-])[N+](C)(C)C (stereo not drawn) [lyso-DGTS, lyso-diacylglyceryltrimethylhornmoserine]
J774A.1 macrophages [1]; APOA1+50 μg/ml lyso-DGTS, p<0.05
  APOA1-mediated cholesterol efflux: ~25%
J774A.1 macrophages [1]; APOA1+100 μg/ml lyso-DGTS, p<0.0001
  APOA1-mediated cholesterol efflux: ~35%
HDL
  effect on HDL Gp values (Laurdan): significantly decreased the HDL Gp values at a dose dependent manner at 20, 50, and 100 μg/ml
J774A.1 macrophages [2]; 100 μg/ml lyso-DGTS vs rePON1 alone, not significant
  enhancement of rePON1 ability to inhibit foam cell formation: ~10%
J774A.1 macrophages [2]; lyso-DGTS (50 μg/ml) alone, then ox-LDL 25 μg/ml 24 h
  reduction of oil red staining intensity: 32%
J774A.1 macrophages [3]; 10 μg/ml lyso-DGTS
  mean fluorescence intensity (MFI) of FITC-rePON1 in cells: 131.02
J774A.1 macrophages [3]; 20 μg/ml lyso-DGTS
  mean fluorescence intensity (MFI) of FITC-rePON1 in cells: 368.61
J774A.1 macrophages [3]; 50 μg/ml lyso-DGTS
  mean fluorescence intensity (MFI) of FITC-rePON1 in cells: 386.46
J774A.1 macrophages [3]; 100 μg/ml lyso-DGTS
  mean fluorescence intensity (MFI) of FITC-rePON1 in cells: 517.45
